Source: publication PMC9030254, “Target Hopping from Protein Kinases to PXR: Identification of Small-Molecule Protein Kinase Inhibitors as Selective Modulators of Pregnane X Receptor from TüKIC Library” (Cells, 2022)

Experiments:
Assay in all cases: Kinase profiling
Type in all cases: biochemical
YES = target: T1, YES (Homo sapiens, UniProt P07947)
T1 construct: purchased ProQinase (Freiburg, Germany)
Method: (§1) The analysis was performed by ProQinase (Freiburg, Germany).

FAK = target: T2, FAK (Homo sapiens, UniProt Q05397)
T2 construct: purchased ProQinase (Freiburg, Germany)
Method: as §1

CLK2 = target: T3, CLK2 (Homo sapiens, UniProt P49760)
T3 construct: purchased ProQinase (Freiburg, Germany)
Method: as §1

MKK7 = target: T4, MKK7 (Homo sapiens, UniProt O14733)
T4 construct: purchased ProQinase (Freiburg, Germany)
T4 sequence (O14733 1-419): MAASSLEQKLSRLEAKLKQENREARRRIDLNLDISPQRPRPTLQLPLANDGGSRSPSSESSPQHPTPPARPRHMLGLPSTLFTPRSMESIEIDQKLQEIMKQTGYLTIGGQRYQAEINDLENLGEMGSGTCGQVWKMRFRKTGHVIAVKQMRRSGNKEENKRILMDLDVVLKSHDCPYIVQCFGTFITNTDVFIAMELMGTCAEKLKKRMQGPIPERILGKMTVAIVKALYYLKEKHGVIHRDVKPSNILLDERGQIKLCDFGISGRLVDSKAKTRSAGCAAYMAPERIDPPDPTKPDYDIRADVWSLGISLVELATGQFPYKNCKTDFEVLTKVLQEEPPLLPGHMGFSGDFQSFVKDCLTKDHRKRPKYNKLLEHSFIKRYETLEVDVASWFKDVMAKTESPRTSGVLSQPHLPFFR
Method: as §1

PDGFRalpha = target: T5, PDGFRalpha (Homo sapiens, UniProt P16234)
T5 construct: purchased ProQinase (Freiburg, Germany)
Method: as §1

AuroraA = target: T6, AuroraA (Homo sapiens, UniProt O14965)
T6 construct: purchased ProQinase (Freiburg, Germany)
T6 sequence (O14965 1-403): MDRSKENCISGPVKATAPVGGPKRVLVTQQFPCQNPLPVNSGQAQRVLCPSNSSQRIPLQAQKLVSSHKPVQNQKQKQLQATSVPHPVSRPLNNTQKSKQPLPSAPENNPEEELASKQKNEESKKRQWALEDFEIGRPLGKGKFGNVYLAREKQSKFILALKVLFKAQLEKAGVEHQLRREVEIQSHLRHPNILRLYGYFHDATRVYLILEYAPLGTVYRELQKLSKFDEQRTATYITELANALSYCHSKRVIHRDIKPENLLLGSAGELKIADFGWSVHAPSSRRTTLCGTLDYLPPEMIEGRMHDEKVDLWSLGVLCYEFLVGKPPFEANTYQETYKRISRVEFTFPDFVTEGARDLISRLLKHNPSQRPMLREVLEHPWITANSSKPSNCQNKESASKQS
Method: as §1

MTOR = target: T7, MTOR (Homo sapiens, UniProt P42345)
T7 construct: purchased ProQinase (Freiburg, Germany)
Method: as §1

PRK2 = target: T8, PRK2 (Homo sapiens, UniProt Q16513)
T8 construct: purchased ProQinase (Freiburg, Germany)
Method: as §1

TSSK1 = target: T9, TSSK1 (Homo sapiens, UniProt Q9BXA7)
T9 construct: purchased ProQinase (Freiburg, Germany)
T9 sequence (Q9BXA7 1-367): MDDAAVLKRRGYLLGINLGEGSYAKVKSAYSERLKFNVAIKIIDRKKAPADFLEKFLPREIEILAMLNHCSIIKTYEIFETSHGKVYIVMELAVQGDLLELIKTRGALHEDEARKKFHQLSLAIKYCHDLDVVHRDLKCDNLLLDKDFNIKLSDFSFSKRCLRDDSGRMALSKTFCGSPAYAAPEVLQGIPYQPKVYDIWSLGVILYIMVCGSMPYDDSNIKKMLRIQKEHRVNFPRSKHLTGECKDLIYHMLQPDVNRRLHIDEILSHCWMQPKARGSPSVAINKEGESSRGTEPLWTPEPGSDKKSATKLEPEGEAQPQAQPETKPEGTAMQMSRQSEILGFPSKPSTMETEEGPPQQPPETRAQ
Method: as §1

GSK3beta = target: T10, GSK3beta (Homo sapiens, UniProt P49841)
T10 construct: purchased ProQinase (Freiburg, Germany)
Method: as §1

PKCmu = target: T11, PKCmu (Homo sapiens, UniProt Q15139)
T11 construct: purchased ProQinase (Freiburg, Germany)
T11 sequence (Q15139 1-912): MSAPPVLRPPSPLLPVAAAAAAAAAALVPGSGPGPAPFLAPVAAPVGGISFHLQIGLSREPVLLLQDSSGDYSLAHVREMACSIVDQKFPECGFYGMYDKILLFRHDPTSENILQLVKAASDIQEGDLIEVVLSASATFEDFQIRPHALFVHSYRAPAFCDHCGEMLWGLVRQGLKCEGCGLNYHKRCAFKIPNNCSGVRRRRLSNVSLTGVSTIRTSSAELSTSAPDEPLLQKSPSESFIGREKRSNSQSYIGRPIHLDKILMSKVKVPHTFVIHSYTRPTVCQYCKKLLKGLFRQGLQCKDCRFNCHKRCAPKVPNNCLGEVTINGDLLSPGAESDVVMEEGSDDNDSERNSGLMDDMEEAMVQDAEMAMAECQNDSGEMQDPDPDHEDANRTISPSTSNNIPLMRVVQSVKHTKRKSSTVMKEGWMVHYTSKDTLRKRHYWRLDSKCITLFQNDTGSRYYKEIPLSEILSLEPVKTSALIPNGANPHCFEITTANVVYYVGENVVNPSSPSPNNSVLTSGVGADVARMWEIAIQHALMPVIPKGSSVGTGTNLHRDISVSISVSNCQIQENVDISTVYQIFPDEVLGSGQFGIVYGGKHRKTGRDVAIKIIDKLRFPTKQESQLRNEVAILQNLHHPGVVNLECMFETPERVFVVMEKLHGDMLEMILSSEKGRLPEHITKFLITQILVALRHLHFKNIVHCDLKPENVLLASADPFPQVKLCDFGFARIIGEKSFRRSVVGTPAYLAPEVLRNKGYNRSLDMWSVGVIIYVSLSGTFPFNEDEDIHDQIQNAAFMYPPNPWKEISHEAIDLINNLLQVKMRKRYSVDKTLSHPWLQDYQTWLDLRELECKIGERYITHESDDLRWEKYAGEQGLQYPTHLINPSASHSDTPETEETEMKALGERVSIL
Method: as §1

GRK4 = target: T12, GRK4 (Homo sapiens, UniProt P32298)
T12 construct: purchased ProQinase (Freiburg, Germany)
Method: as §1

DYRK1B = target: T13, DYRK1B (Homo sapiens, UniProt Q9Y463)
T13 construct: purchased ProQinase (Freiburg, Germany)
Method: as §1

T1 sequence (P07947 whole entry): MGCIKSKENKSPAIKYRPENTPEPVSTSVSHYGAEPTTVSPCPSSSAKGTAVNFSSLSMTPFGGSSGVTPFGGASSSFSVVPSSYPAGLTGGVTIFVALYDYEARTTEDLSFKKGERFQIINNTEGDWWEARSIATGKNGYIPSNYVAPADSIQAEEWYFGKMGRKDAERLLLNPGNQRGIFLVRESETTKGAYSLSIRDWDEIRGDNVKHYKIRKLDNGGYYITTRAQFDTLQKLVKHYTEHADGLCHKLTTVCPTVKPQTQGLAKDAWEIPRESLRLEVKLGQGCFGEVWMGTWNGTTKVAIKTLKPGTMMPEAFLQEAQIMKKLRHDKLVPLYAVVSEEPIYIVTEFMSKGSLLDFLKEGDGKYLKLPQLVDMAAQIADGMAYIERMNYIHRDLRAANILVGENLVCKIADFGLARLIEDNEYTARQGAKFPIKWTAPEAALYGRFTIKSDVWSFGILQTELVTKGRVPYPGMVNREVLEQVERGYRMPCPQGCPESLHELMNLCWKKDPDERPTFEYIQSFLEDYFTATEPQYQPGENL
T2 sequence (Q05397 whole entry): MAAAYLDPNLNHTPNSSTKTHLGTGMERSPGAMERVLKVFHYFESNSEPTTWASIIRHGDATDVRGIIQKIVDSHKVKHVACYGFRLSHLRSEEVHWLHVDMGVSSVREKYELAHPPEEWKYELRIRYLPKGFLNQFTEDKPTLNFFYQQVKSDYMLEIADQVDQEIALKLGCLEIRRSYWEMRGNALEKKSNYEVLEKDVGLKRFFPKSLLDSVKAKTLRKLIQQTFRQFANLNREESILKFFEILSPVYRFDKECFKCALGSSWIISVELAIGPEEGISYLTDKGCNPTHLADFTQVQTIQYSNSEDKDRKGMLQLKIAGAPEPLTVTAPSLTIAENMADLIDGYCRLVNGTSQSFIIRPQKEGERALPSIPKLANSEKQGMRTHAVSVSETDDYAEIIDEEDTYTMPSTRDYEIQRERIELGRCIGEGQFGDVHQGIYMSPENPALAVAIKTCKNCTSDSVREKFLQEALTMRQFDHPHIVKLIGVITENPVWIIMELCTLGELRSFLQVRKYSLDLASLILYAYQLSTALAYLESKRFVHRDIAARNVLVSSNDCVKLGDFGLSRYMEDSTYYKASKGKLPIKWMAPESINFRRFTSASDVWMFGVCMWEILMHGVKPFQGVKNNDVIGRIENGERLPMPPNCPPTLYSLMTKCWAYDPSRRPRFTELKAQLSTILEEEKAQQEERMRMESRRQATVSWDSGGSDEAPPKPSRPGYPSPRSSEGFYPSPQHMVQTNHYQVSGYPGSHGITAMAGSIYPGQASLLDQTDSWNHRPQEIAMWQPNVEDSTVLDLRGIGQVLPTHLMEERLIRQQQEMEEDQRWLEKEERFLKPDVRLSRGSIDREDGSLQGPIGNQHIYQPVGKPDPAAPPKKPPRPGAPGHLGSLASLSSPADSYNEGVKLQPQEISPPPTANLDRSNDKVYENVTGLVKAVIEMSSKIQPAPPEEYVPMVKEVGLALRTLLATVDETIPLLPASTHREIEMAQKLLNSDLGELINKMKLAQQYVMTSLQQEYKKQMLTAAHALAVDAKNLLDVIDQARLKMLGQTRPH
T13 sequence (Q9Y463 whole entry): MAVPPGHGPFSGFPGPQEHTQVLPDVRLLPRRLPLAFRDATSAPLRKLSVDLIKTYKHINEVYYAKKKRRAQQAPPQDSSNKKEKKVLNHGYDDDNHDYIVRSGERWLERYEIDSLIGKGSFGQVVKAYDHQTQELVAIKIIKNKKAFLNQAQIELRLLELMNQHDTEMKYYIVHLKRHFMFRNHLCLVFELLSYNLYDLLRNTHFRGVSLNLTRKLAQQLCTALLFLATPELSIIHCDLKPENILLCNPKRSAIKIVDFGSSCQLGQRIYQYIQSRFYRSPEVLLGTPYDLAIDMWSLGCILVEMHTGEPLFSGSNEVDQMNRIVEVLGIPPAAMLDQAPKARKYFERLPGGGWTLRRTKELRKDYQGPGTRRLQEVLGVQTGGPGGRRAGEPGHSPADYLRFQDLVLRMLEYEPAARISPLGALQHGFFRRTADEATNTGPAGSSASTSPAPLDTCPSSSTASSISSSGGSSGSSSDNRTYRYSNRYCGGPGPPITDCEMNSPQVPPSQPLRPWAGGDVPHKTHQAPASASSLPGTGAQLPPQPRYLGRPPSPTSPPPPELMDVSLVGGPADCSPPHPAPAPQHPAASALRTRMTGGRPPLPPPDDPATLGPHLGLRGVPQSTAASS
T10 sequence (P49841 whole entry): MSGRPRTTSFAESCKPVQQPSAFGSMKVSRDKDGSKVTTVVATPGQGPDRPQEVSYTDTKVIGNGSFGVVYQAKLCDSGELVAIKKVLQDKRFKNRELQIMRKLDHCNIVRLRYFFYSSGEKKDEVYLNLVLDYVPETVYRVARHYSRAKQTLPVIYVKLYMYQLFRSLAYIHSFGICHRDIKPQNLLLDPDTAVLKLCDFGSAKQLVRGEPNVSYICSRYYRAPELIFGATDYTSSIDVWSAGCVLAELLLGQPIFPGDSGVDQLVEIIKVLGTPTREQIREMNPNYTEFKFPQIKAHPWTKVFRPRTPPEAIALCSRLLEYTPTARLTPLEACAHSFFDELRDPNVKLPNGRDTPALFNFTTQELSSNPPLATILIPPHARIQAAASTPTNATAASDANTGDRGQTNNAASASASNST
T8 sequence (Q16513 whole entry): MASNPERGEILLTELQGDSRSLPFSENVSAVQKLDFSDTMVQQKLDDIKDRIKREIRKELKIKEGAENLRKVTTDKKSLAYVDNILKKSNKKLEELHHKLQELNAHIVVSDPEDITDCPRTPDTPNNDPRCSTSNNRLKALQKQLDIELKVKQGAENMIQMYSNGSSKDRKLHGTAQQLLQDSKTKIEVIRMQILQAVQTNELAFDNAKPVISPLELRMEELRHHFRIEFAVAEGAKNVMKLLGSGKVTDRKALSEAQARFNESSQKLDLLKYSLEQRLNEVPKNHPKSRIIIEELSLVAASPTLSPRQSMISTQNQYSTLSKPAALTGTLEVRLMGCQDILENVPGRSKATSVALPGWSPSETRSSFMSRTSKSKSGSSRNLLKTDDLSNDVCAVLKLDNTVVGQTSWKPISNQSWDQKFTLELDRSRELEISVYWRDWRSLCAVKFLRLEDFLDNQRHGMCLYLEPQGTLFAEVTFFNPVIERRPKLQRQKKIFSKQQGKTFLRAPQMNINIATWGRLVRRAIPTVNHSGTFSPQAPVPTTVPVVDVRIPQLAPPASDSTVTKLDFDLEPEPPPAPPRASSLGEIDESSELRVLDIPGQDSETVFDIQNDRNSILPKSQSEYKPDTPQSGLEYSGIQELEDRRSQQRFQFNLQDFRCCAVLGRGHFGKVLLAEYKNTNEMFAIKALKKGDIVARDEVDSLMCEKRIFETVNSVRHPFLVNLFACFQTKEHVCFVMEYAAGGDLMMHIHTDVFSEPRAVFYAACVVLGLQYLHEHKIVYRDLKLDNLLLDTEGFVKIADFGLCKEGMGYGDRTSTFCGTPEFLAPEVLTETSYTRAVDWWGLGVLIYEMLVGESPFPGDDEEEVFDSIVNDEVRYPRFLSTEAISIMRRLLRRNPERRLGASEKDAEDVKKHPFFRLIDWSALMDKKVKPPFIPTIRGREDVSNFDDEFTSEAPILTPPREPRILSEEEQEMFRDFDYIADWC
T3 sequence (P49760 whole entry): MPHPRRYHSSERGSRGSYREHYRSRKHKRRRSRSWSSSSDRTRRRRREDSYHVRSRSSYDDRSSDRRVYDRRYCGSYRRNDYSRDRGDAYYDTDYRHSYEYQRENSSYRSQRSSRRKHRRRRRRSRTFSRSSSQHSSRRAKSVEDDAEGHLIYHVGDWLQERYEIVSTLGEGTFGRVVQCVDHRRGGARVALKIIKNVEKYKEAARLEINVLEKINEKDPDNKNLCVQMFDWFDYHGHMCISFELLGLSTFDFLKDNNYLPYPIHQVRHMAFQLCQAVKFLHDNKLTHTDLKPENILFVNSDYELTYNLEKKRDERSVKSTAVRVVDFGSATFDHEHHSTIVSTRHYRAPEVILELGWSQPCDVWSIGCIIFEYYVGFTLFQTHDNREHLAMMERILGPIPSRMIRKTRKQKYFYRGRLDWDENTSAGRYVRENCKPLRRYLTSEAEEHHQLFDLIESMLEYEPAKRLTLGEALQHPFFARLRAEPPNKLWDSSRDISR
T12 sequence (P32298 whole entry): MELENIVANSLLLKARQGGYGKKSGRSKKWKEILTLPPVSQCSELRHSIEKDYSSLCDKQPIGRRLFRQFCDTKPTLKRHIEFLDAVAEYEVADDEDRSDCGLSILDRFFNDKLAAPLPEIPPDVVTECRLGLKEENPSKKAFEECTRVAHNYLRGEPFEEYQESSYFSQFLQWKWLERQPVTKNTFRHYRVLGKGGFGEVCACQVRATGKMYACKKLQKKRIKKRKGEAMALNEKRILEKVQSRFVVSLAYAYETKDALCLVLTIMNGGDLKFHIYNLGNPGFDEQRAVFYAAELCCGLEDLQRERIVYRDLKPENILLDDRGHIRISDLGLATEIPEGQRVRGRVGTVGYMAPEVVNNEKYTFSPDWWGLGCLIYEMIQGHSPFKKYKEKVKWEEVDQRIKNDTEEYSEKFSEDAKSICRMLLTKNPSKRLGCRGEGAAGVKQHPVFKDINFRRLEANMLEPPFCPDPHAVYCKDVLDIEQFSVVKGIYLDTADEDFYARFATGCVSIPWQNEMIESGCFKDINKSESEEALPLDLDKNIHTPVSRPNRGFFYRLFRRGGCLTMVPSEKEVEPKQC

With `O=C(Cc1ccccc1)Nc1ccc(F)c(Nc2ccc3c(c2)CCCCC3=O)c1` [Compound 100] the Residual activity (YES; 1.0E-05 M) was 70 % of control, the Residual activity (YES; 1.0E-06 M) was 87 % of control and the Residual activity (FAK; 1.0E-05 M) was 88 % of control. For the same molecule, the Residual activity (FAK; 1.0E-06 M) was 116 % of control, the Residual activity (CLK2; 1.0E-05 M) was 107 % of control and the Residual activity (CLK2; 1.0E-06 M) was 117 % of control. For the same molecule, the Residual activity (MKK7; 1.0E-05 M) was 110 % of control, the Residual activity (MKK7; 1.0E-06 M) was 101 % of control and the Residual activity (PDGFRalpha; 1.0E-05 M) was 95 % of control. For the same molecule, the Residual activity (PDGFRalpha; 1.0E-06 M) was 107 % of control, the Residual activity (AuroraA; 1.0E-05 M) was 91 % of control and the Residual activity (AuroraA; 1.0E-06 M) was 96 % of control. For the same molecule, the Residual activity (MTOR; 1.0E-05 M) was 92 % of control, the Residual activity (MTOR; 1.0E-06 M) was 93 % of control and the Residual activity (PRK2; 1.0E-05 M) was 97 % of control. For the same molecule, the Residual activity (PRK2; 1.0E-06 M) was 94 % of control, the Residual activity (TSSK1; 1.0E-05 M) was 105 % of control and the Residual activity (TSSK1; 1.0E-06 M) was 112 % of control. The Residual activity (GSK3beta; 1.0E-05 M) was 88 % of control, the Residual activity (GSK3beta; 1.0E-06 M) was 88 % of control and the Residual activity (PKCmu; 1.0E-05 M) was 94 % of control. The Residual activity (PKCmu; 1.0E-06 M) was 106 % of control, the Residual activity (GRK4; 1.0E-05 M) was 86 % of control and the Residual activity (GRK4; 1.0E-06 M) was 116 % of control. For the same molecule, the Residual activity (DYRK1B; 1.0E-05 M) was 117 % of control and the Residual activity (DYRK1B; 1.0E-06 M) was 103 % of control.
`O=C(Nc1ccc(F)c(Nc2ccc3c(c2)CCCCC3=O)c1)c1cccc(F)c1` [Compound 109] was tested, and the Residual activity (YES; 1.0E-05 M) was 77 % of control, the Residual activity (YES; 1.0E-06 M) was 98 % of control and the Residual activity (FAK; 1.0E-05 M) was 88 % of control. The Residual activity (FAK; 1.0E-06 M) was 104 % of control, the Residual activity (CLK2; 1.0E-05 M) was 103 % of control and the Residual activity (CLK2; 1.0E-06 M) was 112 % of control. For the same molecule, the Residual activity (MKK7; 1.0E-05 M) was 90 % of control, the Residual activity (MKK7; 1.0E-06 M) was 84 % of control and the Residual activity (PDGFRalpha; 1.0E-05 M) was 92 % of control. The Residual activity (PDGFRalpha; 1.0E-06 M) was 96 % of control, the Residual activity (AuroraA; 1.0E-05 M) was 90 % of control and the Residual activity (AuroraA; 1.0E-06 M) was 93 % of control. The Residual activity (MTOR; 1.0E-05 M) was 94 % of control, the Residual activity (MTOR; 1.0E-06 M) was 94 % of control and the Residual activity (PRK2; 1.0E-05 M) was 96 % of control. For the same molecule, the Residual activity (PRK2; 1.0E-06 M) was 90 % of control, the Residual activity (TSSK1; 1.0E-05 M) was 102 % of control and the Residual activity (TSSK1; 1.0E-06 M) was 102 % of control. For the same molecule, the Residual activity (GSK3beta; 1.0E-05 M) was 90 % of control, the Residual activity (GSK3beta; 1.0E-06 M) was 82 % of control and the Residual activity (PKCmu; 1.0E-05 M) was 96 % of control. The Residual activity (PKCmu; 1.0E-06 M) was 95 % of control, the Residual activity (GRK4; 1.0E-05 M) was 130 % of control and the Residual activity (GRK4; 1.0E-06 M) was 103 % of control. For the same molecule, the Residual activity (DYRK1B; 1.0E-05 M) was 96 % of control and the Residual activity (DYRK1B; 1.0E-06 M) was 103 % of control.
